A value given as a limit tells only on which side of the number the result lay.

Here are results for 18 compounds from patent publication US11718619B2, “Isoxazolyl-carbonyloxy azabicyclo[3.2.1]octanyl compounds as FXR activators” (ARDELYX, INC., priority 2016, dated 2023).

Test [1] deals with human Famesoid X receptor ligand-binding domain/Gal4 DNA binding domain chimera (Homo sapiens (Human), UniProt Q96RI1). The test is described as follows: Cellular FXR beta-lactamase reporter assay (FXR-UAS-bla HEK 293T). The test is classed as cell-based. To be noted: for Emax: HEK-293T, read-out: % Efficacy; for EC50: read-out: FXR pEC50 (converted); for % Efficacy: extent of activation relative to GW4064. How it is done:
FXR activation was measured using a cell line and procedure obtained from Life Technologies (Cat #K1691). FXR-UAS-&/a HEK 293T cells contain a human Famesoid X receptor ligand-binding domain/Gal4 DNA binding domain chimera stably integrated into the CellSensor® UAS-bla HEK293T cell line. The CellSensor® UAS-bla HEK293T contains a beta-lactamase reporter gene under control of a UAS response element stably integrated into HEK 293T cells. Activation of FXR by bound ligands results in transcriptional activation of the beta-lactamase reporter gene, which is detected via assay of beta-lactamase activity.
Cells are harvested and diluted into assay medium containing phenol red-free DMEM supplemented with 2% Charcoal-stripped FBS, pyruvate, non-essential amino acids. Cells are then transferred to a 384 well assay plate. Test compounds are dissolved in DMSO and a 3-fold serial dilution series is generated, then further diluted into assay medium. Compounds in assay medium are added to cells in the 384 well plate and allowed to incubate 16 h at 37 C in the presence of 5% CO2.
A FRET-based […] (CCF4) is loaded into cells as its acetomethoxy ester. Intracellular esterases liberate free CCF4, a cephalosporin core linking 7-hydroxycoumarin to fluorescein. In the presence of beta-lactamase activity produced in the presence of FXR agonists, cleavage of CCF4 spatially separates the two dyes and disrupts FRET, so that exciting the coumarin at 409 nm now produces a blue fluorescence signal at 447 nm. The change in FRET signal is plotted against the test compound concentration and fit to a 3-parameter logistical equation.
A general note: A reporter such as luciferase makes a cellular process visible.

The target in test [2] is ligand binding domain of human FXR (Homo sapiens (Human), UniProt Q96RI1). Put plainly: FXR ligand binding assay (LanthaScreen FRET). The conditions noted are these: for % Efficacy: extent of activation relative to GW4064; for Emax: read-out: % Efficacy.
Chain of ligand binding domain of human FXR (Q96RI1 262-486): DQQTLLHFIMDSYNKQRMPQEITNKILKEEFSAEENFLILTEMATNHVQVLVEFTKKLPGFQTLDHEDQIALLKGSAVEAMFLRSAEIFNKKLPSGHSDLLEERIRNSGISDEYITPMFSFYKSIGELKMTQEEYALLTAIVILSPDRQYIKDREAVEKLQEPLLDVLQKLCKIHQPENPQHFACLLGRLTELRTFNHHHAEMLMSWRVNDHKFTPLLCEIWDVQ
Procedure: The affinity of FXR ligands for the ligand binding domain of FXR was determined using a commercially available human FXR ligand binding assay (LanthaScreen, Thermofisher Cat #PV4833). […] Binding of FXR ligands to the FXR ligand binding domain promotes binding of the fluorescein-labelled SRC2-2 peptide. This causes a FRET signal between the terbium-labelled anti-GST antibody and the fluorescein-labelled SRC peptide which are both bound to the FXR ligand binding domain.
Test compounds are dissolved in DMSO and a 3-fold serial dilution series is generated, then further diluted into assay buffer. The compounds are mixed with 5 nM GST-tagged FXR ligand binding domain, 5 nM Tb-labelled anti-GST antibody and 500 nM fluorescein-labelled SRC2-2 peptide in a pH 7.4 buffer. The reaction is incubated at room temperature for 1 hour, then the FRET signal is measured as the ratio of the 520 nm/495 nm emission following excitation at 340 nm. The change in FRET signal is plotted against the test article concentration and fit to a 3-parameter logistical equation.
For test [3], the system named is C57BL/6 male mice fed a Western diet. The test is described as follows: Western diet study. The test is classed as in vivo, C57BL/6 mice. How it is done: Six-week-old C57BL/6 male mice were fed a Western diet (WD) (62% fat/0.2% cholesterol). […] An additional control group (lean) was fed a standard rodent chow throughout the study. Body weight measurements and serum samples (tail bleed) were taken weekly. After 6 weeks of treatment, all animals were sacrificed and hepatosteatosis-related endpoints and other liver markers were measured.
Total RNA from mouse tissues was isolated and used for library preparation. Library samples were multiplexed ahead of mRNA sequencing.

Chain of human Famesoid X receptor ligand-binding domain/Gal4 DNA binding domain chimera (Q96RI1 262-486, stated change not applied): as the sequence (Q96RI1 262-486) above

In the case of `Cn1c(N2[C@@H]3CC[C@H]2C[C@@H](OC(=O)c2c(-c4c(Cl)cccc4Cl)noc2C2CC2)C3)nc2c(F)cc(C(=O)O)cc21` [Compound I-31, 2-[(1R,3R,5S)-3-[5-cyclopropyl-3-(2,6-dichlorophenyl)-1,2-oxazole-4-carbonyloxy]-8-azabicyclo[3.2.1]octan-8-yl]-4-fluoro-1-methyl-1H-1,3-benzodiazole-6-carboxylic acid], in test [1], the Emax is 100% and the EC50 is 398 nM.
Consider “2-[(1R,3S,5S)-3-(5-cyclopropyl-3-{4-methoxybicyclo[2.2.2]octan-1-yl}-1,2-oxazole-4-carbonyloxy)-8-azabicyclo[3.2.1]octan-8-yl]-4-(trifluoromethoxy)-1,3-benzothiazole-6-carboxylic acid [Compound I-58]”, for which the “FXR pEC50” value is listed as above 4.5 in test [1] (pEC50 = −log EC50, 16 h incubation) and above 4.4 in test [2] (pEC50 = −log EC50, FRET signal, SRC2-2 peptide). The “% Efficacy” value in test [2] was 22%.
Consider `O=C(O)c1cc(F)c2nc(N3[C@@H]4CC[C@H]3C[C@@H](OC(=O)c3c(-c5ccccc5)noc3C3CC3)C4)sc2c1` [Compound I-13, 2-[(1R,3R,5S)-3-(5-Cyclopropyl-3-phenyl-1,2-oxazole-4-carbonyloxy)-8-azabicyclo[3.2.1]octan-8-yl]-4-fluoro-1,3-benzothiazole-6-carboxylic acid], for which, in test [1], the Emax is 93% and the EC50 was 1000 nM. Moreover, the Emax in test [2] turned out to be 40%.
The matching figures for `Cc1onc(-c2c(Cl)cccc2Cl)c1C(=O)O[C@H]1C[C@H]2CC[C@@H](C1)N2c1nc2c(F)cc(C(=O)O)cc2s1` [Compound I-23, 2-[(1R,3S,5S)-3-[3-(2,6-dichlorophenyl)-5-methyl-1,2-oxazole-4-carbonyloxy]-8-azabicyclo[3.2.1]octan-8-yl]-4-fluoro-1,3-benzothiazole-6-carboxylic acid]: 100%, 158 nM and 37%.
The matching figures for `O=C(Cc1c(-c2c(Cl)cccc2Cl)noc1C1CC1)O[C@H]1C[C@H]2CC[C@@H](C1)N2c1nc2c(F)cc(C(=O)O)cc2s1` [Compound I-32, 2-[(1R,3R,5S)-3-({2-[5-cyclopropyl-3-(2,6-dichlorophenyl)-1,2-oxazol-4-yl]acetyl}oxy)-8-azabicyclo[3.2.1]octan-8-yl]-4-fluoro-1,3-benzothiazole-6-carboxylic acid]: 86%, 398 nM and 34%.
Take `CCCS(=O)(=O)NC(=O)c1ccc(N2[C@@H]3CC[C@H]2C[C@@H](OC(=O)c2c(-c4c(Cl)cccc4Cl)noc2C2CC2)C3)cc1` [Compound I-45, (1R,3R,5S)-8-{4-[(propane-1-sulfonyl)carbamoyl]phenyl}-8-azabicyclo[3.2.1]octan-3-yl 5-cyclopropyl-3-(2,6-dichlorophenyl)-1,2-oxazole-4-carboxylate]: the “% Efficacy” value in test [1] is given as 128%; in test [2], 130%.
Take `O=C(NS(=O)(=O)C1CC1)c1ccc(N2[C@@H]3CC[C@H]2C[C@H](OC(=O)c2c(-c4c(Cl)cccc4Cl)noc2C2CC2)C3)cc1` [Compound I-48, (1R,3S,5S)-8-{4-[(cyclopropanesulfonyl)carbamoyl]phenyl}-8-azabicyclo[3.2.1]octan-3-yl 5-cyclopropyl-3-(2,6-dichlorophenyl)-1,2-oxazole-4-carboxylate]: the “% Efficacy” value in test [1] was 130%.
For `CC1(c2onc(-c3c(Cl)cccc3Cl)c2C(=O)OC2C[C@H]3CC[C@@H](C2)N3c2nc3c(F)cc(C(=O)O)cc3s2)CC1` (single isomer, unassigned) [Compound I-26], in test [1], the Emax is 106% and the EC50 is 31.6 nM. For the same compound, in test [2], the Emax was determined as 75%.
On to `CCCCCS(=O)(=O)NC(=O)c1ccc(N2[C@@H]3CC[C@H]2C[C@@H](OC(=O)c2c(-c4c(Cl)cccc4Cl)noc2C2CC2)C3)cc1` [Compound I-46, (1R,3R,5S)-8-{4-[(pentane-1-sulfonyl)carbamoyl]phenyl}-8-azabicyclo[3.2.1]octan-3-yl 5-cyclopropyl-3-(2,6-dichlorophenyl)-1,2-oxazole-4-carboxylate], for which the entries for the “% Efficacy” value in test [1] and in test [2] were 110% and 146%, respectively.
For the compound `O=C(O)c1cc(F)c2nc(N3[C@@H]4CC[C@H]3C[C@@H](OC(=O)c3c(C56CCC(CC5)CC6)noc3C3CC3)C4)sc2c1` [Compound I-20, 2-[(1R,3R,5S)-3-(3-{Bicyclo[2.2.2]octan-1-yl}-5-cyclopropyl-1,2-oxazole-4-carbonyloxy)-8-azabicyclo[3.2.1]octan-8-yl]-4-fluoro-1,3-benzothiazole-6-carboxylic acid], in test [1], the “% Efficacy” value is reported as 22%.
For the compound `O=C(O)c1cc(F)c2nc(N3[C@@H]4CC[C@H]3C[C@@H](OC(=O)c3c(-c5c(Cl)cccc5Cl)noc3C3CCC3)C4)sc2c1` [Compound I-24, 2-[(1R,3R,5S)-3-[5-cyclobutyl-3-(2,6-dichlorophenyl)-1,2-oxazole-4-carbonyloxy]-8-azabicyclo[3.2.1]octan-8-yl]-4-fluoro-1,3-benzothiazole-6-carboxylic acid], the results for the Emax in test [1] and in test [2] were 98% and 64%, respectively. In addition, in test [1], the EC50 is 31.6 nM.
With `O=C(O)c1cc(F)c2nc(N3[C@@H]4CC[C@H]3C[C@@H](OC(=O)c3c(C5CCC6(CC5)CC6)noc3C3CC3)C4)sc2c1` [Compound I-19, 2-[(1R,3R,5S)-3-(5-cyclopropyl-3-{spiro[2.5]octan-6-yl}-1,2-oxazole-4-carbonyloxy)-8-azabicyclo[3.2.1]octan-8-yl]-4-fluoro-1,3-benzothiazole-6-carboxylic acid], in test [1], the Emax was 79% and the EC50 was 158 nM. In test [2], the Emax came to 55%.
In the case of `O=C(O)c1ccc([C@H]2C[C@@H]2c2ccc(OCc3c(-c4c(Cl)cccc4Cl)noc3C3CC3)cc2Cl)cc1` [Px-102], the “Activity, % (n)” value in test [2] (Human FXR Binding (FRET), relative to GW4064) is 90 ± 15 (3) %. Moreover, the “liver Cyp7a1 gene expression” value in test [3] is listed as “downregulated”. For the same compound, in test [3] (6 weeks of treatment), the “hepatosteatosis related endpoints (including liver triglycerides and liver cholesterol)” value is “normalized”; the “macrovesicular steatosis (score)” value is given as “reduced”; the “serum FGF15 concentration” value was “further increased”; the serum cholesterol entry is reported as “reduced”.
For `O=C(O)c1cc(F)c2nc(N3[C@@H]4CC[C@H]3C[C@@H](OC(=O)c3c(-c5c(F)cccc5F)noc3C3CC3)C4)sc2c1` [Compound I-16, 2-[(1R,3R,5S)-3-[5-cyclopropyl-3-(2,6-difluorophenyl)-1,2-oxazole-4-carbonyloxy]-8-azabicyclo[3.2.1]octan-8-yl]-4-fluoro-1,3-benzothiazole-6-carboxylic acid], the Emax in test [1] worked out at 110%; in test [2] it was 47%. The EC50 in test [1] was 200 nM.
The matching figures for `CC(C)(C)c1onc(-c2c(Cl)cccc2Cl)c1C(=O)OC1C[C@H]2CC[C@@H](C1)N2c1nc2c(F)cc(C(=O)O)cc2s1` (single isomer, unassigned) [Compound I-25]: 100%, 56% and 25.1 nM.
For `O=C(O)c1cc(F)c2nc(N3[C@@H]4CC[C@H]3C[C@@H](OC(=O)c3c(-c5c(Cl)cccc5Cl)noc3C3(F)CC3)C4)sc2c1` [Compound I-27, 2-[(1R,3R,5S)-3-[3-(2,6-dichlorophenyl)-5-(1-fluorocyclopropyl)-1,2-oxazole-4-carbonyloxy]-8-azabicyclo[3.2.1]octan-8-yl]-4-fluoro-1,3-benzothiazole-6-carboxylic acid], in test [1], the Emax stood at 108% and the EC50 is 3.98 nM. Moreover, the Emax in test [2] came to 107%.
As for `O=C(O)c1cc(F)c2nc(N3[C@@H]4CC[C@H]3C[C@@H](OC(=O)c3c(-c5c(Cl)cccc5OC(F)F)noc3C3CC3)C4)sc2c1` [Compound I-15, 2-[(1R,3R,5S)-3-{3-[2-chloro-6-(difluoromethoxy)phenyl]-5-cyclopropyl-1,2-oxazole-4-carbonyloxy}-8-azabicyclo[3.2.1]octan-8-yl]-4-fluoro-1,3-benzothiazole-6-carboxylic acid], the figures for the Emax in test [1] and in test [2] were 108% and 71%, respectively. Further, the EC50 in test [1] is 39.8 nM.
On the same counts, the results for `O=C(O)c1cc(F)c2nc(N3[C@@H]4CC[C@H]3C[C@@H](OC(=O)c3c(-c5ccccc5OC(F)(F)F)noc3C3CC3)C4)sc2c1` [Compound I-14, 2-[(1R,3R,5S)-3-{5-cyclopropyl-3-[2-(trifluoromethoxy)phenyl]-1,2-oxazole-4-carbonyloxy}-8-azabicyclo[3.2.1]octan-8-yl]-4-fluoro-1,3-benzothiazole-6-carboxylic acid] are 116%, 147% and 7.94 nM.
